In PubChem BioAssay AID588615 (The Scripps Research Institute Molecular Screening Center, 2011):
Active and inactive are the calls of the source.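 Rule for the calls: active = p38 protein level shifted by 30% or more versus DMSO-treated cells, either down or up; inactive = shift in p38 protein level below 30%.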

Experiments:
[1] = biological target: Mitogen-activated protein kinase 14 (Homo sapiens) (UniProt Q16539); test: total p38 protein level change, either direction, late-stage follow-up, counter-screen for KLF5 inhibitor project, DLD1 cells, chemiluminescent western blot, powder samples (AID 588615); conditions: DLD-1 cells, p38 western blot, 24 h; at 10 µM; stronger effect = higher value
Sequence of Mitogen-activated protein kinase 14 (Homo sapiens) (Q16539 whole entry, looked up): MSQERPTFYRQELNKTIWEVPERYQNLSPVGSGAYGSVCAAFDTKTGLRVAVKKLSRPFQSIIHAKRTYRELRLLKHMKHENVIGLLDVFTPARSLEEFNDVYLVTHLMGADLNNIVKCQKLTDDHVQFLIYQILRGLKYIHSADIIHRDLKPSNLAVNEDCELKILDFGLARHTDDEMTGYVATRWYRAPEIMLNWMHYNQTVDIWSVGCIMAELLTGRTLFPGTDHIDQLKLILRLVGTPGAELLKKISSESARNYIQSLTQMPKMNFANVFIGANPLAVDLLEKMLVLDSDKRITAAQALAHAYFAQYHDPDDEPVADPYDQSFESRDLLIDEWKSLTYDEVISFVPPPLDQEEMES

[2] = system: DLD-1 cells, p38 western blot, 24 h; test: as above; conditions: measured here: p38 band fold change vs DMSO; at 10 µM

Row | inhibition [1] | Compound | fold change [2]
1 | 12.3% (inactive) | CN(C(=O)CNC(=O)/C=C/c1cccc(Cl)c1)C1CCS(=O)(=O)CC1 | –
2 | 19.9% (inactive) | CN(C(=O)COC(=O)/C=C/c1cccc([N+](=O)[O-])c1)C1CCS(=O)(=O)C1 (centres undefined) | –
3 | -5.46% (inactive) | CN(C(=O)CNC(=O)/C=C/c1cccc(Cl)c1)C1CCS(=O)(=O)C1 (centres undefined) | 1.05
